Values after ≈ are worked out from the molar mass of the structure shown. One block for each compound: values may come before it.
What was measured:
[1] = test system: A. baumannii clinical isolates; experiment: Broth microdilution MIC susceptibility testing against carbapenems; type: cell-based, Acinetobacter baumannii
OXA-23 = details: cited from earlier work
OXA-24/40 = details: cited from earlier work
OXA 24/40 = details: cited from earlier work
A. baumannii ARC5955 = experiment: Neutropenic murine thigh infection model; type: in vivo; details: thigh tissue, CD-1 mice, 24 h after initiation of therapy, 40 mg/kg SC/q24h; for Change in log10 CFU/g: 40 mg/kg

MIC50 ([1]; Acinetobacter baumannii): 1 µg/mL (≈ 2.61 µM)
MIC90 ([1]; Acinetobacter baumannii): 32 µg/mL (≈ 83.4 µM)
MIC ([1]; Acinetobacter baumannii, strain AB001): 1 µg/mL (≈ 2.61 µM)
MIC ([1]; Acinetobacter baumannii, strain AB002): 2 µg/mL (≈ 5.22 µM)
MIC ([1]; Acinetobacter baumannii, strain AB003): 2 µg/mL (≈ 5.22 µM)
MIC ([1]; Acinetobacter baumannii, strain AB004): 2 µg/mL (≈ 5.22 µM)
MIC ([1]; Acinetobacter baumannii, strain AB005): 1 µg/mL (≈ 2.61 µM)
MIC ([1]; Acinetobacter baumannii, strain AB006): 4 µg/mL (≈ 10.4 µM)
MIC ([1]; Acinetobacter baumannii, strain AB007): 0.5 µg/mL (≈ 1.3 µM)
MIC ([1]; Acinetobacter baumannii, strain AB008): 1 µg/mL (≈ 2.61 µM)
MIC ([1]; Acinetobacter baumannii, strain AB009): 1 µg/mL (≈ 2.61 µM)
MIC ([1]; Acinetobacter baumannii, strain AB010): 1 µg/mL (≈ 2.61 µM)
MIC ([1]; Acinetobacter baumannii, strain AB011): 1 µg/mL (≈ 2.61 µM)
MIC ([1]; Acinetobacter baumannii, strain AB012): 1 µg/mL (≈ 2.61 µM)
MIC ([1]; Acinetobacter baumannii, strain AB013): 1 µg/mL (≈ 2.61 µM)
MIC ([1]; Acinetobacter baumannii, strain AB014): 1 µg/mL (≈ 2.61 µM)
MIC ([1]; Acinetobacter baumannii, strain AB015): 2 µg/mL (≈ 5.22 µM)
MIC ([1]; Acinetobacter baumannii, strain AB016): 0.5 µg/mL (≈ 1.3 µM)
MIC ([1]; Acinetobacter baumannii, strain AB017): 0.5 µg/mL (≈ 1.3 µM)
MIC ([1]; Acinetobacter baumannii, strain AB018): 0.5 µg/mL (≈ 1.3 µM)
MIC ([1]; Acinetobacter baumannii, strain AB019): 0.25 µg/mL (≈ 0.652 µM)
MIC ([1]; Acinetobacter baumannii, strain AB020): 0.5 µg/mL (≈ 1.3 µM)
MIC ([1]; Acinetobacter baumannii, strain AB021): 0.5 µg/mL (≈ 1.3 µM)
MIC ([1]; Acinetobacter baumannii, strain AB022): 0.5 µg/mL (≈ 1.3 µM)
MIC ([1]; Acinetobacter baumannii, strain AB023): 2 µg/mL (≈ 5.22 µM)
MIC ([1]; Acinetobacter baumannii, strain AB024): 0.5 µg/mL (≈ 1.3 µM)
MIC ([1]; Acinetobacter baumannii, strain AB025): 0.5 µg/mL (≈ 1.3 µM)
MIC ([1]; Acinetobacter baumannii, strain AB026): 1 µg/mL (≈ 2.61 µM)
MIC ([1]; Acinetobacter baumannii, strain AB027): 0.5 µg/mL (≈ 1.3 µM)
MIC ([1]; Acinetobacter baumannii, strain AB028): 0.5 µg/mL (≈ 1.3 µM)
MIC ([1]; Acinetobacter baumannii, strain AB029): 0.5 µg/mL (≈ 1.3 µM)
MIC ([1]; Acinetobacter baumannii, strain AB030): 1 µg/mL (≈ 2.61 µM)
MIC ([1]; Acinetobacter baumannii, strain AB031): 1 µg/mL (≈ 2.61 µM)
MIC ([1]; Acinetobacter baumannii, strain AB032): 0.5 µg/mL (≈ 1.3 µM)
MIC ([1]; Acinetobacter baumannii, strain AB033): 1 µg/mL (≈ 2.61 µM)
MIC ([1]; Acinetobacter baumannii, strain AB034): 1 µg/mL (≈ 2.61 µM)
MIC ([1]; Acinetobacter baumannii, strain AB035): 0.25 µg/mL (≈ 0.652 µM)
MIC ([1]; Acinetobacter baumannii, strain AB036): 0.5 µg/mL (≈ 1.3 µM)
MIC ([1]; Acinetobacter baumannii, strain AB037): 0.25 µg/mL (≈ 0.652 µM)
MIC ([1]; Acinetobacter baumannii, strain AB038): 1 µg/mL (≈ 2.61 µM)
MIC ([1]; Acinetobacter baumannii, strain AB039): 1 µg/mL (≈ 2.61 µM)
MIC ([1]; Acinetobacter baumannii, strain AB040): 0.5 µg/mL (≈ 1.3 µM)
MIC ([1]; Acinetobacter baumannii, strain AB041): 0.5 µg/mL (≈ 1.3 µM)
MIC ([1]; Acinetobacter baumannii, strain AB042): 4 µg/mL (≈ 10.4 µM)
MIC ([1]; Acinetobacter baumannii, strain AB043): 16 µg/mL (≈ 41.7 µM)
MIC ([1]; Acinetobacter baumannii, strain AB044): 8 µg/mL (≈ 20.9 µM)
MIC ([1]; Acinetobacter baumannii, strain AB045): 8 µg/mL (≈ 20.9 µM)
MIC ([1]; Acinetobacter baumannii, strain AB046): 16 µg/mL (≈ 41.7 µM)
MIC ([1]; Acinetobacter baumannii, strain AB047): 8 µg/mL (≈ 20.9 µM)
MIC ([1]; Acinetobacter baumannii, strain AB048): 16 µg/mL (≈ 41.7 µM)
MIC ([1]; Acinetobacter baumannii, strain AB049): 32 µg/mL (≈ 83.4 µM)
MIC ([1]; Acinetobacter baumannii, strain AB050): 16 µg/mL (≈ 41.7 µM)
MIC ([1]; Acinetobacter baumannii, strain AB051): 1 µg/mL (≈ 2.61 µM)
MIC ([1]; Acinetobacter baumannii, strain AB052): 2 µg/mL (≈ 5.22 µM)
MIC ([1]; Acinetobacter baumannii, strain AB053): 2 µg/mL (≈ 5.22 µM)
MIC ([1]; Acinetobacter baumannii, strain AB054): 32 µg/mL (≈ 83.4 µM)
MIC ([1]; Acinetobacter baumannii, strain AB055): 8 µg/mL (≈ 20.9 µM)
MIC ([1]; Acinetobacter baumannii, strain AB056): 16 µg/mL (≈ 41.7 µM)
MIC ([1]; Acinetobacter baumannii, strain AB057): 32 µg/mL (≈ 83.4 µM)
MIC ([1]; Acinetobacter baumannii, strain AB058): 2 µg/mL (≈ 5.22 µM)
MIC ([1]; Acinetobacter baumannii, strain AB059): 32 µg/mL (≈ 83.4 µM)
MIC ([1]; Acinetobacter baumannii, strain AB060): 32 µg/mL (≈ 83.4 µM)
MIC ([1]; Acinetobacter baumannii, strain AB061): 32 µg/mL (≈ 83.4 µM)
MIC ([1]; Acinetobacter baumannii, strain AB062): 64 µg/mL (≈ 167 µM)
MIC ([1]; Acinetobacter baumannii, strain AB063): 0.5 µg/mL (≈ 1.3 µM)
MIC ([1]; Acinetobacter baumannii, strain AB064): 0.25 µg/mL (≈ 0.652 µM)
MIC ([1]; Acinetobacter baumannii, strain AB065): 32 µg/mL (≈ 83.4 µM)
MIC ([1]; Acinetobacter baumannii, strain AB066): 0.25 µg/mL (≈ 0.652 µM)
MIC ([1]; Acinetobacter baumannii, strain AB067): 0.25 µg/mL (≈ 0.652 µM)
MIC ([1]; Acinetobacter baumannii, strain AB068): 1 µg/mL (≈ 2.61 µM)
MIC ([1]; Acinetobacter baumannii, strain AB069): 1 µg/mL (≈ 2.61 µM)
MIC ([1]; Acinetobacter baumannii, strain AB070): 2 µg/mL (≈ 5.22 µM)
MIC ([1]; Acinetobacter baumannii, strain AB071): 0.5 µg/mL (≈ 1.3 µM)
MIC ([1]; Acinetobacter baumannii, strain AB072): 0.25 µg/mL (≈ 0.652 µM)
MIC ([1]; Acinetobacter baumannii, strain CCF 1MR): > 8 µg/mL
MIC ([1]; Acinetobacter baumannii, strain CCF 2MR): > 8 µg/mL
MIC ([1]; Acinetobacter baumannii, strain CCF 3MR): > 8 µg/mL
MIC ([1]; Acinetobacter baumannii, strain CCF 4MR): > 8 µg/mL
MIC ([1]; Acinetobacter baumannii, strain CCF 5MR): > 8 µg/mL
MIC ([1]; Acinetobacter baumannii, strain CCF 6MR): > 8 µg/mL
MIC ([1]; Acinetobacter baumannii, strain CCF 7MR): > 8 µg/mL
MIC ([1]; Acinetobacter baumannii, strain CCF 8MR): > 8 µg/mL
MIC ([1]; Acinetobacter baumannii, strain UH AB202): > 8 µg/mL
MIC ([1]; Acinetobacter baumannii, strain UH AB461): > 8 µg/mL
MIC ([1]; Acinetobacter baumannii, strain UH AB477): > 8 µg/mL
MIC ([1]; Acinetobacter baumannii, strain UH AB487): > 8 µg/mL
MIC ([1]; Acinetobacter baumannii, strain UH AB489): > 8 µg/mL
MIC ([1]; Acinetobacter baumannii, strain UH AB490): > 8 µg/mL
MIC ([1]; Acinetobacter baumannii, strain UH AB491): > 8 µg/mL
MIC ([1]; Acinetobacter baumannii, strain UH AB636): > 8 µg/mL
MIC ([1]; Acinetobacter baumannii, strain UH AB660): > 8 µg/mL
MIC ([1]; Acinetobacter baumannii, strain UH AB667): > 8 µg/mL
MIC ([1]; Acinetobacter baumannii, strain VA-432): 64 µg/mL (≈ 167 µM)
MIC ([1]; Acinetobacter baumannii, strain VA-433): 32 µg/mL (≈ 83.4 µM)
MIC ([1]; Acinetobacter baumannii, strain VA-434): 64 µg/mL (≈ 167 µM)
MIC ([1]; Acinetobacter baumannii, strain VA-435): 64 µg/mL (≈ 167 µM)
MIC ([1]; Acinetobacter baumannii, strain VA-436): 64 µg/mL (≈ 167 µM)
MIC ([1]; Acinetobacter baumannii, strain VA-437): 32 µg/mL (≈ 83.4 µM)
MIC ([1]; Acinetobacter baumannii, strain VA-438): 32 µg/mL (≈ 83.4 µM)
MIC ([1]; Acinetobacter baumannii, strain VA-505): 32 µg/mL (≈ 83.4 µM)
Compound: C[C@@H](O)[C@H]1C(=O)N2C(C(=O)O)=C(S[C@@H]3CN[C@H](C(=O)N(C)C)C3)[C@H](C)[C@H]12 [Meropenem]
isolates resistant (R ≥ 8 according to CLSI) ([1]; 72 WRAMC isolates (seventeen of 72)): 24%

Compound: N#CC1CC[C@@H]2CN1C(=O)N2OS(=O)(=O)O (some centres unmarked) [WCK 4234]
k2/Ki (OXA-23): 1.7 ± 0.2 × 10^4 M^−1 s^−1
k2/Ki (OXA-24/40): 9.6 ± 1 × 10^3 M^−1 s^−1

Compound: CC1=C[C@@H](C(N)=O)N2C[C@@H]1N(OS(=O)(=O)O)C2=O [compound 3]
IC50 (OXA 24/40): 360 nM

Compound: Colistin
Log10 CFU/g (A. baumannii ARC5955): 5.3 log10 CFU/g
Change in log10 CFU/g (A. baumannii ARC5955): −1.4 log10 CFU/g
Change in log10 CFU/g (A. baumannii ARC5955; listed as colistin): −1.36 log10 CFU/g

— publication PMC6414696 (mBio, 2019)
